From ChEMBL document CHEMBL2331330, “Substituted piperidinyl glycinyl 2-cyano-4,5-methano pyrrolidines as potent and stable dipeptidyl peptidase IV inhibitors” (Bioorg Med Chem Lett, 2013)

Assays:
Dipeptidyl peptidase 4 = Dipeptidyl peptidase 4 (Homo sapiens, UniProt P27487); experiment: Inhibition of human DPP4 using gly-pro-para-nitroanilide as substrate
[1] = Degradation half life of the compound at 30 mM at pH 7.2; assay type: physicochemical; conditions: buffer
[2] = Degradation half life of the compound at 10 mM at pH 7.2; assay type: physicochemical; conditions: buffer
[3] = Degradation half life of the compound at 50 mM at pH 7.2; assay type: physicochemical; conditions: buffer

Sequence of Dipeptidyl peptidase 4 (P27487 whole entry): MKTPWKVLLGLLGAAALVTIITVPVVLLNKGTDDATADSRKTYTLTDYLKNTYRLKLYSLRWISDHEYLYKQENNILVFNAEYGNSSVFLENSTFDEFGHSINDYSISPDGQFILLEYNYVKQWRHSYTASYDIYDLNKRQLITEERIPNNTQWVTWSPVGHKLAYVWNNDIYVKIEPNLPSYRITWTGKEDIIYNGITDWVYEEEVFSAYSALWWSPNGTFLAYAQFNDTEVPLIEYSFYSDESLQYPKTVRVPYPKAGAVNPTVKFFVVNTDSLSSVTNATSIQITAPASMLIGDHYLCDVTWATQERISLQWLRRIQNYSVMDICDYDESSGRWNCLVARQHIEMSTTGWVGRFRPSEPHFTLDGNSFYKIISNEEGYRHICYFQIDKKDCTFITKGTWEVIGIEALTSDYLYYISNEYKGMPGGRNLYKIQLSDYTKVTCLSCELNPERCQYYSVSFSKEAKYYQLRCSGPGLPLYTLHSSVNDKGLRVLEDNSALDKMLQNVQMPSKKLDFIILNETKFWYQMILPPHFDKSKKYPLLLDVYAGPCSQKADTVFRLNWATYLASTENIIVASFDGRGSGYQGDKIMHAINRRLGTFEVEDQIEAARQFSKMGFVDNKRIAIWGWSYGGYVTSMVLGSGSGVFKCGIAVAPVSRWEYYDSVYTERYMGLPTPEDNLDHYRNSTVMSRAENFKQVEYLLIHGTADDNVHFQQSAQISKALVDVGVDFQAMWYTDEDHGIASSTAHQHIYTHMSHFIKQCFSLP

Compound	Ki (Dipeptidyl peptidase 4) [µM]	half-life at 30000 µM [1] [h]	half-life at 10000 µM [2] [h]	half-life at 50000 µM [3] [h]
N#C[C@@H]1C[C@@H]2C[C@@H]2N1C(=O)[C@@H](N)C1CCN(C(=O)Cc2ccccc2)CC1	0.018			
N#C[C@@H]1C[C@@H]2C[C@@H]2N1C(=O)[C@@H](N)C1CCN(S(=O)(=O)c2cccc3ccccc23)CC1	0.013			
CCC1([C@H](N)C(=O)N2[C@H](C#N)C[C@@H]3C[C@@H]32)CCN(C(=O)CC(C)(C)C)CC1		245	473	192
CC(C)(C)CC(=O)N1CCC([C@H](N)C(=O)N2[C@H](C#N)C[C@@H]3C[C@@H]32)CC1		38.4	48	38.4
